According to ChEMBL document CHEMBL1287661, “Computational structure-activity relationship analysis of small-molecule agonists for human formyl peptide receptors” (Eur J Med Chem, 2010):
The source made the active and inactive calls.

How the values were obtained:
[1] = target: T1, N-formyl peptide receptor 2 (Homo sapiens) (UniProt P25090); assay: Agonist activity at human FPR2 expressed in RBL-2H3 cells assessed as induction of calcium mobilization; format: functional, cell-based
T1 sequence (whole entry): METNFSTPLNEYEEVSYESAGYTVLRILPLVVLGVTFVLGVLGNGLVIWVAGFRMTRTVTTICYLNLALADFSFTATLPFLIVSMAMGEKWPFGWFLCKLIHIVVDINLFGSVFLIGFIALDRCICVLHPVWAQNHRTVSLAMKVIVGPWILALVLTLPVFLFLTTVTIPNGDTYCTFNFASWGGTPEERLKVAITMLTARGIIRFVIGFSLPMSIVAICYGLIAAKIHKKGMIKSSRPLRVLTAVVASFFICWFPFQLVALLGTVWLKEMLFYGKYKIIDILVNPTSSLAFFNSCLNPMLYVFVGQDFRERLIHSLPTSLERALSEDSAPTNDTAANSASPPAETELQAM

[2] = target: T2, fMet-Leu-Phe receptor (Homo sapiens) (UniProt P21462); assay: Agonist activity at human FPR1 expressed in RBL-2H3 cells assessed as induction of calcium mobilization; format: functional, cell-based
T2 sequence (whole entry): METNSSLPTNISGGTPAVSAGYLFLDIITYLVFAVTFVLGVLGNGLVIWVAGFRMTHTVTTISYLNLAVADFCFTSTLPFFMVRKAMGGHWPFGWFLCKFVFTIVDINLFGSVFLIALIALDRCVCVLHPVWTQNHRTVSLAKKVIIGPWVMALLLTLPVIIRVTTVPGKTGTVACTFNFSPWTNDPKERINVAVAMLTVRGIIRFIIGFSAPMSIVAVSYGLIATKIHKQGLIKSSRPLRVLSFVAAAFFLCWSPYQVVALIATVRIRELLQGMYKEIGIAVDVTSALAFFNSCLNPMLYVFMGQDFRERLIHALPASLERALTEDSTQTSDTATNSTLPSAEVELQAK

Structure (SMILES)	Activity [1]	Activity [2]
COc1ccc(NC(=O)CCCCc2cccs2)cc1	Active	–
O=C(CN1CCN(c2ccccc2)CC1)Nc1ccccc1	inactive	inactive
O=C(CN1CCN(c2ccccc2)CC1)Nc1ccccc1Br	inactive	inactive
CCc1nc2ccccc2n1[C@@H]1CCN(C(=O)c2nc3cc(OC)ccc3[nH]2)C1	Active	–
O=C(CN1CCN(c2ccccc2)CC1)Nc1cccc(Br)c1	inactive	inactive
Cc1ccc(N2CCN(CC(=O)Nc3ccc(Br)cc3)CC2)cc1Cl	Active	–
CC1(C)CC(=O)C(C(c2cccc(OCc3ccccc3)c2)C2C(=O)CC(C)(C)CC2=O)C(=O)C1	–	Active
COc1cccc(NC(=O)CSc2nc3cc(OC)ccc3[nH]2)c1	–	Active
O=C(CN1CCN(c2ccccc2)CC1)Nc1ccc(Br)cc1	Active	–
CSCC[C@H](NC(=O)[C@H](Cc1ccc(O)cc1)NC(=O)[C@H](CCCCN)NC(=O)[C@@H](N)Cc1c[nH]c2ccccc12)C(=O)N[C@H](C(=O)N[C@H](CCSC)C(N)=O)C(C)C	Active	Active
COc1cc(/C=N/NC(=O)c2ccc3c(c2)OCO3)ccc1OCc1ccccc1	–	Active
COc1cccc(N2CCN(CC(=O)Nc3ccc(Br)cc3)CC2)c1	Active	–
O=C(CN1CCN(c2ccc(F)cc2)CC1)Nc1ccc(Br)cc1	Active	–
O=C(CN1CCN(c2cccc(Cl)c2)CC1)Nc1ccc(Br)cc1	Active	–
O=C(CSc1nc2ccccc2[nH]1)Nc1ccccc1	inactive	inactive
O=C(N/N=C/c1ccc(-c2cccc(C(F)(F)F)c2)o1)c1ccc(F)cc1	Active	–
COc1ccc2[nH]c(SCC(=O)Nc3ccc(OC)c(OC)c3)nc2c1	Active	Active
COc1ccc(NC(=S)NN2C(=O)CSC2c2c[nH]c3ccccc23)cc1 (configuration not stated)	Active	Active
Cc1c(Cl)cccc1N1CCN(CC(=O)Nc2ccc(Br)cc2)CC1	Active	–

Structure (SMILES)	Activity [1]	Activity [2]
CCOc1ccc2[nH]c(SCC(=O)Nc3ccc(OC)cc3)nc2c1	–	Active
O=C(CN1CCN(c2ccccc2Cl)CC1)Nc1ccccc1	inactive	inactive
COc1ccc2[nH]c(SCC(=O)Nc3ccccc3OC)nc2c1	Active	Active
CCC(Nc1ccc(OC)cc1)C(=O)N/N=C(C)/C=C/c1ccccc1 (configuration not stated)	Active	–
Cc1ccc(Cl)cc1N1CCN(CC(=O)Nc2ccc(Br)cc2)CC1	Active	–
CCCC(C)c1ccc(OCC(=O)N/N=C/c2ccsc2)cc1 (configuration not stated)	Active	Active
O=C1NCC(c2ccccc2)C1C(=O)N/N=C/C=C/c1ccc(Br)cc1 (configuration not stated)	inactive	inactive
Cc1ccc2[nH]c(SCC(=O)Nc3cccc(C(F)(F)F)c3)nc2c1	inactive	inactive
COc1ccc(C2Nc3ccccc3C(=O)N2NC(=O)c2ccc([N+](=O)[O-])cc2)cc1 (configuration not stated)	Active	–
COc1ccc2[nH]c(SCC(=O)Nc3ccc(Br)cc3)nc2c1	–	Active
CCOc1ccc(NC(=O)CSc2nc3cc(OC)ccc3[nH]2)cc1	–	Active
CSc1ccc(NC(=O)Nc2c(C)n(C)n(-c3ccccc3)c2=O)cc1	Active	–
O=C(N/N=C/c1ccc(-c2cccc(Br)c2)o1)c1cccnc1	Active	–
O=C(CSc1nc2ccccc2[nH]1)Nc1cccc(Br)c1	inactive	inactive
COc1ccc(NC(=O)Nc2ccc(C(=O)N3CCCCC3)cc2)cc1	Active	Active
COc1ccc2[nH]c(SCC(=O)Nc3ccccc3)nc2c1	–	Active
COc1cccc(Cc2cc(C)nn(CC(=O)Nc3ccc4c(c3)OCO4)c2=O)c1	–	Active
COc1ccccc1/C=C/C=N/NC(=O)Cc1cccs1	inactive	inactive
CCOc1ccc(C(=O)NN2C(=O)c3ccccc3NC2c2ccc(OC)cc2)cc1 (configuration not stated)	Active	–

Further lines, results first:

Activity [1]	Activity [2]	Structure (SMILES)
inactive	inactive	O=C(CSc1nc2ccccc2s1)N/N=C/C=C/c1ccccc1[N+](=O)[O-]
Active	–	O=C(NNC(=O)c1ccccc1[N+](=O)[O-])c1ccc(Cl)cc1
inactive	inactive	O=C(CN1CCN(c2ccccc2)CC1)Nc1ccc(F)c(Cl)c1
inactive	inactive	O=C(CSc1nc2ccccc2[nH]1)Nc1ccc([N+](=O)[O-])cc1
inactive	inactive	Cc1ccc(CCNC(=O)Nc2ccc(F)cc2)cc1
Active	Active	CC(C)c1c(NC(=O)Nc2ccc(Cl)cc2)c(=O)n(-c2ccccc2)n1C
inactive	inactive	O=C(NCCc1ccc(Cl)cc1)Nc1ccccc1[N+](=O)[O-]
Active	–	CCc1c(NC(=O)Nc2ccc(Cl)cc2)c(=O)n(-c2ccccc2)n1C
inactive	inactive	COc1ccc(CCNC(=O)Nc2ccc(Cl)cc2Cl)cc1
Active	Active	COc1ccc2[nH]c(SCC(=O)Nc3ccc(Cl)cc3)nc2c1
inactive	inactive	Cc1cccc2[nH]c(SCC(=O)Nc3ccc(Cl)c([N+](=O)[O-])c3)nc12
inactive	inactive	O=C(Cc1ccccc1)N/N=C/C=C/c1ccccc1[N+](=O)[O-]
inactive	inactive	O=C(NCCc1ccccc1)Nc1ccccc1
Active	–	O=C(Cc1ccc(Br)cc1)N/N=C/C=C/c1ccccc1[N+](=O)[O-]
–	Active	COc1ccc2[nH]c(SCC(=O)Nc3ccc([N+](=O)[O-])cc3)nc2c1
Active	–	O=C(CNc1ccccc1)N/N=C/C=C/c1ccccc1[N+](=O)[O-]
Active	–	O=C(CN1CCN(c2ccc(Cl)cc2)CC1)Nc1ccc(Br)cc1
Active	–	Cc1c(NC(=O)Nc2ccc(Br)cc2)c(=O)n(-c2ccccc2)n1C
Active	–	COc1ccc(CCNC(=O)Nc2ccccc2)cc1
Active	–	COc1ccc(CC(=O)N/N=C/C=C/c2ccccc2[N+](=O)[O-])cc1OC
Active	–	COc1ccc(CCNC(=O)Nc2ccc(Br)cc2)cc1
inactive	inactive	Cc1cccc(NC(=O)NCCc2ccc(Cl)cc2)c1
Active	–	COc1ccc(CCNC(=O)Nc2ccc(F)cc2)cc1
Active	–	COc1ccc(CCNC(=O)Nc2ccc(Cl)cc2)cc1
Active	–	O=C1NCC(c2ccccc2)C1C(=O)N/N=C/C=C/c1ccccc1[N+](=O)[O-] (configuration not stated)
inactive	inactive	O=C(CN1CCN(c2ccccn2)CC1)Nc1ccc(Cl)cc1
